# Laboratory results from patent US12402629B2, “Aspergillus terreus strain and composition for controlling bacterial plant diseases using strain or culture filtrate thereof” (Andong National University Industry-Academic Cooperation …, priority 2022, dated 2025).
# “Also recorded” adds a separate entry of the source.
# Assays:
# Dickeya chrysanthemi [1] = test: Pathogen inoculation experiment on potato (potato soft rot control effect); assay type: in vivo; conditions: potato treated at the same time with D.c. suspension 2×10^6 cfu/ml and 400 ppm MPP (FIG. 6)
# Protocol: In order to test whether the culture filtrate of the Aspergillus terreus ANU-301 strain of the present disclosure has a control effect on potato soft rot caused by Dickeya chrysanthemi bacteria, a pathogen inoculation experiment was performed (FIG. 3).
# In potato plants inoculated with Dickeya chrysanthemi bacteria (D.c.), browning progressed at the inoculation site, and symptoms of soft rot disease were confirmed.
# A pathogen inoculation experiment was conducted to test whether the MPP component present in the culture filtrate of the Aspergillus terreus ANU-301 strain of the present disclosure is effective in controlling potato soft rot disease caused by Dickeya chrysanthemi bacteria (FIG. 6). In potato plants inoculated with Dickeya chrysanthemi bacteria (D.c.), browning progressed at the inoculation site, and symptoms of soft rot disease were confirmed. […] Hereinafter, the present disclosure will be described in more detail with reference to Examples. However, these examples are presented merely to describe the present disclosure in more detail, and the scope of the present disclosure is not limited to these examples.
# In order to evaluate the effect of the ANU-301 strain culture filtrate on potato soft rot inhibition, the culture filtrate was prepared as follows.
# The ANU-301 strain was inoculated into sterilized potato dextrose broth (PDB) and cultured at 25° C. for 5 days. […]
# Dickeya chrysanthemi [2] = test: Disc diffusion assay on NA medium; assay type: cell-based; conditions: paper filter disk wetted with 400 ppm of MPP, NA medium (FIG. 5)
# Protocol: To this end, the NA medium (Nutrient agar medium: peptone 5 g, beef extract 1.5 g, yeast extract 1.5 g, NaCl 5 g & agar 15 g/1 L) was smeared with Dickeya chrysanthemi bacteria. After placing a paper filter disk in the center of the medium, 10 μL of culture extract and 400 ppm of MPP were wetted therein, respectively, and the result of culturing the bacteria was observed.
smiles,measurement,setting,value
"CC(C)(c1ccccc1)c1ccc(O)c(C(C)(C)c2ccccc2)c1 [MPP, 2,4-bis(1-methyl-1-phenylethyl)-phenol]",soft rot symptoms (disease control effect),Dickeya chrysanthemi [1],soft rot symptoms were suppressed; also recorded: showed a disease inhibitory effect
same,bacterial growth / clear zone around the disk,Dickeya chrysanthemi [2],a clear zone was formed
